This note sets out measurements from PubChem BioAssay AID651891 (Broad Institute, 2012).

For this assay, the system named is L. donovani axenic amastigotes, Alamar blue, 72 h. Nature of the assay: antileishmanial activity on axenic amastigotes – plate reader, cherry pick, dose response (AID 651891).

By IC50 is commonly meant the concentration needed to halve the response being measured.

Active and inactive are the calls of the source.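 The calls were made as follows: active = IC50 below three times the IC50 of the reference antileishmanial control drug; inactive = the rest.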

As for `C[C@@H]1CN([C@@H](C)CO)C(=O)c2cccc(NC(=O)c3ccncc3)c2O[C@H]1CN(C)Cc1ccc(Oc2ccccc2)cc1`, the IC50 is 21.2 µM (inactive).
